Source: patent publication US5304560A, “Quinazoline derivatives and their preparation” (Fujisawa Pharmaceutical Co., Ltd., priority 1990, dated 1994)

Key:
DA2 receptor = target: T1, DA2 receptor (Rattus norvegicus, UniProt P61169); experiment: Dopamine receptor (DA2 receptor) binding assay; conditions: [3H]spiperone 0.2 nM; rat striatum 160 μg/ml; 37° C., 10 minutes, pH 7.4
T1 construct: The final tissue concentration of rat striatum was 160 μg/ml; from tissue; host or cells: rat striatum (printed 'stratum'), washed homogenate
T1 sequence (P61169 whole entry): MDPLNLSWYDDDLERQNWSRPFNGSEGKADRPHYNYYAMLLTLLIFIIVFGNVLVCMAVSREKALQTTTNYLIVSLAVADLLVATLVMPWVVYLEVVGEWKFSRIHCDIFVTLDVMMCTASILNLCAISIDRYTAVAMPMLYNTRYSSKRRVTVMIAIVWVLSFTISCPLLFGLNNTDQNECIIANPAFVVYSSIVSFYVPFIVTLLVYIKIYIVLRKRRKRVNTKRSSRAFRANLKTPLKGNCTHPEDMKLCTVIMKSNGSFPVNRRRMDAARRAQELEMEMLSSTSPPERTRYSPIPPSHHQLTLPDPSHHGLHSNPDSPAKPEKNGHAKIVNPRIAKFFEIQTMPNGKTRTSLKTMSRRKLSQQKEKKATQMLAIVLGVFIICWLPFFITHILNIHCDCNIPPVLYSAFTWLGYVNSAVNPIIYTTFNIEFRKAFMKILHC
Method: Test 1 [Dopamine receptor (DA2 receptor) binding assay]
The affinity for DA2 receptor of a Test Compound was determined following in vitro receptor binding assays.
Male rats weighing 150-300 g were decapitated and the stratum were dissected from their brains. The tissue was homogenized in 30 volumes of buffer which consisted of 50 mM Tris-HCl (pH 7.4 at 25° C.), 120 mM sodium chloride, 5 mM potassium chloride, 1 mM calcium chloride, 1 mM magnesium chloride, 10 μM pargirine, and 0.1% ascorbic acid. The homogenate was centrifuged at 50,000 g for 15 minutes. The pellet was resuspended in 30 volumes of the buffer. The tissue suspension was centrifuged and suspended again in the same way.
Incubation tubes received 100 μl of [phenyl-4-^3 H]spiperone, 100 μl of the Test Compound and 0.8 ml of tissue suspension during binding assays. The concentration of [phenyl-4-^3 H]spiperone was 0.2 nM. The final tissue concentration of rat striatum was 160 μg/ml. […] The filters were counted by liquid scintillation counter.
Specific binding of the [^3 H]spiperone was determined in the presence of 1 μM butaclamol. The IC50 value of the Test Compound was calculated from the data of [^3 H]spiperone binding in the presence of 10^-9 M, 10^-8 M, 10^-7 M and 10^-6 M Test Compound.

[1] = tested on: reserpine-induced DOPA accumulation; experiment: Inhibition of reserpine-induced DOPA accumulation; assay type: in vivo, Male SD rats; conditions: dose 3.2 mg/kg, oral, 2 hours before sacrifice; reserpine 1 mg/kg s.c. 17-19 hours before; striatum DOPA
Method: Test 2 [Inhibition of reserpine-induced DOPA accumulation]
Male SD rats weighing 300-400 g were used in this test. Rats were pretreated with reserpine (1 mg/kg, S.C.) 17-19 hours before sacrifice and then fasted. Test Compound was given orally to the rats 2 hours before sacrifice. [m-Hydroxybenzylhydrazine (100 mg/kg, i.p.) was given 30 minutes before sacrifice.] Each rat was exposed to microwaves using a head-focus microwave applicator for 1.5 seconds. The whole brain was removed and further separated into the striatum.
DOPA was determined as follows; the striatum was homogenized in 9 volumes of 0.1N perchloric acid solution (0.4% EDTA·2Na). The homogenate was centrifuged at 10,000 rpm for 1 minutes. The supernatant was applied to high performance liquid chromatography.

[2] = tested on: spontaneous hypertensive rats; experiment: Hypotensive effect on spontaneous hypertensive rats; assay type: in vivo, rat; conditions: dose 1 mg/kg, oral, in 0.5% methylcellulose; 15 to 25-week-old male spontaneous hypertensive rats
Method: Test 3 [Hypotensive effect on spontaneous hypertensive rats]
15 to 25-Week-old male spontaneous hypertensive rats with mean arterial blood pressure of about 160-200 mmHg, weighing 300-350 g, were used. The animals were cannulated in the left femoral artery and the mean blood pressure and heart rate were measured with a pressure-transducer. The animals were deprived of food for about 18 hours before oral dosing. The Test Compound was suspended in 0.5% methylcellulose, and given orally.

## Br.O=c1[nH]c(=O)n(CCCCN2CC=C(c3ccccc3)CC2)c2cc(O)ccc12 [Compound A, 1-[4-(4-phenyl-1,2,3,6-tetrahydropyridin-1-yl)butyl]-7-hydroxy-2,4(1H,3H)-quinazolinedione hydrobromide]
DA2 receptor
  IC50: 7.4 nM
[1]
  Inhibition (%): 10%
[2]
  Maximum decrease of blood pressure (%): 19%
